Data taken from patent publication US5631394A, “Pharmaceutically active ceramide-related compounds” (The Liposome Company, Inc., priority 1995, dated 1997).
Where two headings read alike, the source gives them in different places.

Experiments:
RPMI 7666 cells = test: sulforhodamine B cytotoxicity assay, 72 hour drug exposure, RPMI 7666; assay type: cell-based
Protocol: (§1) These studies were performed using a sulforrhodamine B assay (see Monks et al., J. Natl. Cancer Inst. (U.S.) 83:757 ([…])). Compounds were dissolved in ethanol. Results from these studies, presented in the following tables, are expressed as Gl50 values, that is, concentration of a drug (micromolar) required to inhibit growth of fifty percent of the cells.

C3H10T1/2 cells = test: sulforhodamine B cytotoxicity assay, 72 hour drug exposure, C3H10T1/2; assay type: cell-based; details: Mus musculus, C3H 10T1/2
Protocol: as §1

LEWIS LUNG cells = test: sulforhodamine B cytotoxicity assay, 72 hour drug exposure, Lewis lung; assay type: cell-based
U937 cells = test: sulforhodamine B cytotoxicity assay, 72 hour drug exposure, U937; assay type: cell-based; details: Homo sapiens, U-937
Protocol: as §1

A549 cells = test: sulforhodamine B cytotoxicity assay, 72 hour drug exposure, A549; assay type: cell-based
MCF7/ADR cells = test: sulforhodamine B cytotoxicity assay, 72 hour drug exposure, MCF7/ADR; assay type: cell-based
OVCAR 3 cells = test: sulforhodamine B cytotoxicity assay, 72 hour drug exposure, OVCAR 3; assay type: cell-based; details: Homo sapiens, OVCAR-3, 72 h
HT 29 cells = test: sulforhodamine B cytotoxicity assay, 72 hour drug exposure, HT 29; assay type: cell-based
MCF7 cells = test: sulforhodamine B cytotoxicity assay, 72 hour drug exposure, MCF7; assay type: cell-based
RPMI-7666 cells [1] = test: % survival, trypan blue assay, with serum, RPMI-7666; assay type: cell-based; details: bioactive lipid dose = 20 uM
P388/ADR cells = test: sulforhodamine B cytotoxicity assay, 72 hour drug exposure, P388/ADR; assay type: cell-based; details: Mus musculus
Protocol: as §1

P-388 cells [2] = test: % survival, trypan blue assay, with serum, P-388; assay type: cell-based; details: bioactive lipid dose = 20 uM
P388 cells = test: sulforhodamine B cytotoxicity assay, 72 hour drug exposure, P388; assay type: cell-based; details: Mus musculus
Protocol: as §1

SKMEL 28 cells = test: sulforhodamine B cytotoxicity assay, 72 hour drug exposure, SKMEL 28; assay type: cell-based
U-937 cells [3] = test: % survival, trypan blue assay, with serum, U-937; assay type: cell-based; details: bioactive lipid dose = 20 uM
RPMI-7666 cells [4] = test: % survival, trypan blue exclusion assay, without serum, RPMI-7666; assay type: cell-based; details: bioactive lipid dose = 20 uM, 2880 min
U-937 cells [5] = test: % survival, trypan blue exclusion assay, without serum, U-937; assay type: cell-based; details: bioactive lipid dose = 20 uM, 2880 min
P-388 cells [6] = test: % survival, trypan blue exclusion assay, without serum, P-388; assay type: cell-based; details: bioactive lipid dose = 20 uM, 2880 min
CAKI 1 cells = test: sulforhodamine B cytotoxicity assay, 72 hour drug exposure, CAKI 1; assay type: cell-based
mice = test: in vivo toxicity after i.v. injection in mice
[7] = Homo sapiens, NCI/ADR-RES, 72 h

Compound	GI50 (RPMI 7666 cells) [µM]	GI50 (C3H10T1/2 cells) [µM]	GI50 (LEWIS LUNG cells; Lewis lung carcinoma) [µM]	GI50 (U937 cells) [µM]	GI50 (A549 cells; Homo sapiens) [µM]	GI50 (MCF7/ADR cells; [7]) [µM]	GI50 (LEWIS LUNG cells; Lewis lung carcinoma, 72 h) [µM]	GI50 (OVCAR 3 cells) [µM]	GI50 (HT 29 cells; Homo sapiens, HT-29, 72 h) [µM]	GI50 (MCF7 cells; Homo sapiens, MCF7, 72 h) [µM]	GI50 (A549 cells; Homo sapiens, A549, 72 h) [µM]	GI50 (SKMEL 28 cells; Homo sapiens, SK-MEL-28, 72 h) [µM]	GI50 (CAKI 1 cells; Homo sapiens, CAKI-1, 72 h) [µM]	other results
CCCCCCCCCCCCC/C=C/[C@@H](OC(=O)CCC)[C@H](CO[Si](C)(C)C(C)(C)C)NC(=O)CCCCC [1-TBDMS-3-Butyrate C6-Cer, 1-TBDMS,3-butyrate, C6-Cer]	> 200	> 200	> 200	> 200	> 200	–	–	–	–	–	–	–	–	–
CCCCCCCCCCCCC/C=C/C(=O)[C@H](COC(C)=O)NC(=O)CCCCC [1-Acetate-3-one C6-Cer, 1-acetate-3-one C6-Cer]	–	–	–	–	–	14.7 ± 0.1	14.5 ± 0.1	15.3 ± 0.1	13.9 ± 0.2	6.7 ± 0.1	14.4 ± 0.1	–	–	–
CCCCCCCCCCCCC/C=C/[C@@H](O)[C@H](CO)NC(=O)CCCCC [C6-Ceramide, C6-ceramide, reference compound]	8.5 ± 3.5	14 ± 2.5	–	7 ± 1.7	–	36 ± 0.88	9.6 ± 4.4	15.2 ± 1.77	4 ± 0.2	24.2 ± 8.5	12 ± 4.8	13.3 ± 2.51	6.04 ± 0.23	GI50 (MCF7/ADR cells): 36 ± 0.88 µM; GI50 (MCF7/ADR cells; listed as Cer-C6): 26.1 ± 0.85 µM; % Survival (by trypan blue assay) (RPMI-7666 cells [1]): 89.2%; GI50 (P388/ADR cells): 12.7 ± 1.7 µM; % Survival (by trypan blue assay) (P-388 cells [2]): 84.5%; GI50 (P388 cells): 6.24 ± 0.3 µM; GI50 (LEWIS LUNG cells; listed as Cer-C6): 5.81 µM; GI50 (SKMEL 28 cells; listed as Cer-C6): 11.55 ± 0.07 µM; % Survival (by trypan blue assay) (U-937 cells [3]): 97%; % Survival (by trypan blue exclusion assay) (RPMI-7666 cells [4]): 79%; % Survival (by trypan blue exclusion assay) (U-937 cells [5]): 82.6%; GI50 (HT 29 cells; listed as Cer-C6): 4.67 ± 0.19 µM; GI50 (MCF7 cells; listed as Cer-C6): 12.7 ± 0.14 µM; % Survival (by trypan blue exclusion assay) (P-388 cells [6]): 55.4%; GI50 (CAKI 1 cells; listed as Cer-C6): 5.88 ± 0.1 µM; GI50 (A549 cells; listed as Cer-C6): 8.08 ± 0.06 µM
CCCCCCCCCCCCC/C=C/[C@@H](O[Si](C)(C)C(C)(C)C)[C@H](CO[Si](C)(C)C(C)(C)C)NC(=O)CCCCC [1,3-DiTBDMS C6-Ceramide, 1,3 DiTBDMS C6 Cer]	> 200	–	> 200	134 ± 28.8	> 200	–	–	–	–	–	–	–	–	–
CCCCCCCCCCCCC/C=C/[C@@H](O)[C@H](CO)NCCCC [N-C4 Sphingosine, N-C4 sphingosine]	–	–	–	–	–	9.6 ± 0.47	5.08 ± 0.13	14.1 ± 0.35	6.49 ± 0.11	4.88 ± 0.03	4.9 ± 0.1	6.13 ± 1.03	6.88 ± 0.52	–
CCCCCCCCCCCCCC(O)C(O)[C@@H](O)[C@H](CO)NC(=O)CCCCC (stereo partly shown) [4,5-Diol C6-Ceramide, 4,5-diol C6-Cer]	–	–	–	–	–	28.3 ± 1.1	–	38.2 ± 2.3	14.6 ± 0.4	20.7 ± 0.1	25.1 ± 0.3	–	–	GI50 (LEWIS LUNG cells; Mus musculus, Lewis lung carcinoma, 72 h): 15.2 µM
CCCCCCCCCCCCC/C=C/[C@@H](O[Si](C)(C)C(C)(C)C)[C@H](CO)NC(=O)CCCCC [3-TBDMS C6-Ceramide, 3-TBDMS C6-Cer]	> 200	> 200	> 200	> 200	> 200	–	–	–	–	–	–	–	–	–
CCCCCCCCCCCCC/C=C/[C@@H](O)[C@H](CO)NCCCCCC [N-Hexyl Sphingosine, n-hexyl sphingosine]	–	–	–	–	–	5.57 ± 1.17	4.9 ± 0.1	4.99 ± 0.05	5.2 ± 0.1	4.8 ± 0.1	4.9 ± 0.1	4.94 ± 0.66	6.84 ± 3.62	GI50 (MCF7/ADR cells; listed as N-C6 Sphingosine): 4.69 ± 0.1 µM; GI50 (P388/ADR cells): 2.61 ± 1.7 µM; GI50 (P388 cells): 2.59 ± 0.3 µM; GI50 (LEWIS LUNG cells; listed as N-C6 Sphingosine): 4.61 ± 0.04 µM; Number of Animals Dead (mice; 12.5 mg/kg): 0/2; Number of Animals Dead (mice; 25 mg/kg): 0/2; Number of Animals Dead (mice; 50 mg/kg): 0/2; Number of Animals Dead (mice; 100 mg/kg): 2/2; GI50 (HT 29 cells; listed as N-C6 Sphingosine): 5.03 ± 0.06 µM; GI50 (MCF7 cells; listed as N-C6 Sphingosine): 4.74 ± 0.09 µM; GI50 (CAKI 1 cells; listed as N-C6 Sphingosine): 4.28 ± 0.04 µM
CCCCCCCCCCCCC/C=C/[C@@H](O)[C@H](CO)NCCCCCCCCCC	–	–	–	–	–	6.19 ± 0.43	6.71 ± 1.04	12.5 ± 0.85	14.5 ± 0.14	5.13 ± 0.01	4.99 ± 0.08	13	6.18 ± 0.01	–
